Entries after “also recorded” stand apart in the source; their conditions may differ.
Legend:
[1] = pH of BGE-105 dissolved in deionized water; format: physicochemical; details: 275 ug/mL in deionized water
Protocol: BGE-105 was administered in drinking water consumed ad libitum. The compound is mildly acidic when dissolved, resulting in a pH 4.5 solution. The deionized water was adjusted to pH 8.5 by adding 1N NaOH. The vehicle control group consumed water (ad libitum) of the same pH without drug.

79-HMC = experiment: Proliferation of immortalized human muscle cells, older donor; format: cell-based; details: for cell proliferation (measured at day 4): older subject cells
Protocol: (§1) Immortalized human cells from male donors (25-HMC) […] (79-HMC) are grown from the proliferation stage until they become 80% confluent, differentiate, and become myotubes. […] Early proliferation markers (Pax7, Myf5, MyoD, and MyoG were assessed via RT-PCR (FIG. 8D to 8K)

pAkt = experiment: Western blot of pAkt in soleus after oral BGE-105; format: in vivo; details: mice, oral 45 mg/kg, vs vehicle
Source text: (§2) Administration of an apelin receptor agonist can induce the phosphorylation and activation of AMPK in heart tissue. Tissue samples were lysed using T-PER tissue protein extraction reagent (Thermo Fisher Scientific #78510) containing EDTA and protease/phosphatase inhibitors on the Omni Bead Ruptor 12 Homogenizer. Total protein was extracted then quantified using Pierce™ BCA Protein Assay Kit. Loaded equal amounts of total protein per lane on a 4-12% SDS-PAGE gel and transferred to PVDF membrane. Membranes were blocked and blotted with anti-phospho-AMPKα-Thr172 (Cell Signaling Technology, CST #2535), total-AMPKα (CST #2532), anti-phospho-Akt-SeR^473 (CST #4060), total-Akt (CST #4685), anti-phospho-ERK-1/2-Thr202/Tyr204 of Erk1 and Thr185/Tyr187 of Erk2 (CST #4370), total-ERK-1/2 (CST #9107) or anti-APLNR receptor (abcam, ab214369) antibodies. Band intensities were normalized to loading control anti-β-Actin (CST #3700) or anti-GAPDH (abcam, ab181602) antibodies. Immunoreactive proteins were detected using SuperSignal™ West Femto Substrate (Thermo Fisher Scientific #34095) and quantified by Image Lab™ software (Bio-Rad Laboratories, Inc.).
(§3) Apelin can induce the phosphorylation of Akt in the soleus muscle and improve glucose homeostasis. […]

25-HMC [2] = experiment: Early proliferation marker expression (RT-PCR), younger donor cells; format: cell-based, human
Protocol: as §1

[3] = tested on: Twenty-month-old male C57/B16 mice; experiment: Disuse-induced muscle atrophy (hindlimb casting) in aged mice; format: in vivo
Source text: Limb immobilization causes a loss of gross skeletal muscle mass accompanied by a significant decrease in apelin transcript levels.
One week into the treatment, mice underwent modified hindlimb casting on one limb. Mice were anesthetized with isoflurane inhalation and the hindlimb wiped with povidone-iodine, then ethanol, and loosely wrapped in surgical gauze. A custom-made plastic immobilization device was placed on the limb, with the foot in full extension, so as to result in the maximal in vivo unloading of the plantarflexor group. The device was fixed to the hindlimb using Vetbond and the animal returned to its cage. After 3 weeks of treatment following casting, mice were euthanized 1 hour after the final ZT1 dose, and tissues isolated, weighed, then flash frozen in liquid nitrogen for subsequent western blot analysis.

[4] = tested on: immobilized human muscles; experiment: Bed rest study in healthy older adult humans; format: in vivo; details: healthy older adults, 10 days bed rest, 200 mg a day
Source text: Two groups of healthy older adult humans (e.g., N=10 per group) who are moderately active remain in bed continuously for 10 days, except for toileting, and they consume a eucaloric diet providing the recommended dietary allowance for protein (0.8 g/kg of protein per day). […] Measurements before and after bed rest include muscle function and protein synthesis.

pAMPK = experiment: Western blot of pAMPK in heart after oral BGE-105; format: in vivo; details: mice, oral 45 mg/kg, vs vehicle
Source text: as §2, §3

apelin receptor = experiment: Apelin receptor protein levels in rat TA after chronic dosing; format: in vivo; details: rats, 5 consecutive days oral, 50 mg/kg QD and 200 mg/kg BID
Source text: as §2
The difference between tissues was conserved among rodent species: In rats, as in mice, apelin receptor levels in rat tissue were 2-fold higher in heart than in soleus, FIGS. 5A-5B. […]

[5] = tested on: aged (24-month-old) C57BL/6 mice; experiment: Grid hang test (forearm grip strength); format: in vivo; details: after 64 days of treatment, vs vehicle
Protocol: Four 20-gallon plastic buckets were used to suspend a three-by-three-foot metal grid suspended approximately three feet from the ground. The ground just below the grid was padded with soft material. The metal grid was placed on its side so that it was perpendicular to the buckets' surface. […] Once the grid was completely parallel with the horizontal plane (i.e. the floor), the timer was started. The timer was stopped when the mouse fell onto the padded floor and the time to fall was recorded and graphed.
To determine whether increased wheel activity was accompanied by an increase in muscle strength, near the end of the frailty study the mice were subjected to a grid hang test, which measures forearm grip strength. […] Average latency to fall increased in the BGE-105-treated mice (p=0.04, Mann-Whitney U test) (FIGS. 3B and 3C). Thus, the increase in running activity observed in BGE-105-treated mice were accompanied by improved forearm grip strength.

25-HMC [6] = experiment: Proliferation of immortalized human muscle cells, younger donor; format: cell-based; details: for cell proliferation (measured at day 4): younger subject cells
Protocol: as §1

[7] = 20-month-old immobilized mice, 50 mg/kg BID, 50 mg/kg

For `COc1cccc(OC)c1-n1c(NS(=O)(=O)[C@@H](C)[C@H](C)c2ncc(C)cn2)nnc1-c1cncc(C)c1` [BGE-105, (2S,3R)—N-(4-(2,6-dimethoxyphenyl)-5-(5-methyl-3-pyridinyl)-4H-1,2,4-triazol-3-yl)-3-(5-methyl-2-pyrimidinyl)-2-butanesulfonamide], the “pH of solution when dissolved” value [1] was 4.5, the “cell proliferation, short-term treatment” value (79-HMC; aged donor cells, day 0 to day 4 post seeding) was “significant increase of cell proliferation” and the “cell proliferation (measured at day 4)” value (79-HMC; 5 nM) was “significant increase in cell proliferation”. The “cell proliferation (measured at day 4)” value (79-HMC; 50 nM) was “increase”, the “pAkt levels in the soleus” value (pAkt) was “increased levels; also recorded: marginally significant increase” and the “expression of muscle cell differentiation markers Pax7 and MyoD” value (25-HMC [2]; young donor cells) was “increased the expression”. For the same compound, the MyoD expression (25-HMC [2]; younger cells, 5 nM) was “very significant increase”, the Myf5 expression (25-HMC [2]; younger cells, 5 and 50 nM) was “equal to apelin treatment” and the Pax7 expression (25-HMC [2]; younger cells, 5 and 50 nM) was “recapitulated the levels of apelin”. For the same compound, the “MyoG expression (FIG. 8F)” value (25-HMC [2]; younger cells, any amount of BGE-105, relative to control) was “no change”, the “extensor digitorum longus (EDL) muscle weight / atrophy” value [3, 7] was “did not measurably atrophy; also recorded: near significant improvement in muscle weight; also recorded: near significant decrease in the percent atrophy” and the gastrocnemius atrophy [3, 7] was “less effective; also recorded: no improvement”. The “soleus muscle weight / atrophy” value [3, 7] was “modest rescue in atrophy; also recorded: near significant improvement in muscle weight; also recorded: marginal improvement in the percent atrophy”, the “tibialis anterior muscle weight / percent atrophy vs vehicle” value [3, 7] was “significant improvement in maintaining muscle weight; also recorded: significant decrease in the percent atrophy” and the “decrease in wet weight of tibialis anterior (TA) muscle” value ([3]; casted limb, 50 mg/kg BID P.O., 21 days immobilization) was 3%. For the same compound, the “muscle atrophy / loss of muscle mass induced by immobilization” value ([3]; immobilized aged mice, orally dosed, vs vehicle) was “significantly reduced muscle atrophy; also recorded: protected against some loss of muscle mass”, the “muscle atrophy in immobilized human muscles” value [4] was “prevent or attenuate muscle atrophy” and the “pAMPK levels in the heart” value (pAMPK) was “increased levels; also recorded: significantly higher”. The “apelin receptor levels in the TA” value (apelin receptor) was “modest but non-significant decrease”, the “latency to fall in grid hang test (grip strength)” value [5] was “statistically significant improvement in grip strength; also recorded: increase in the latency to fall; also recorded: increased” and the “cell proliferation, short-term treatment” value (25-HMC [6]; young donor cells, day 0 to day 4 post seeding) was “significant increase of cell proliferation”. The “cell proliferation (measured at day 4)” value (25-HMC [6]; 5 nM) was “increase” and the “cell proliferation (measured at day 4)” value (25-HMC [6]; 50 nM) was “significant increase in cell proliferation”.

Reference: patent US20240252493A1, “Apelin Receptor Modulators for Treating Age-Related Muscle Conditions” (BIOAGE LABS, INC., priority 2021, published 2024)
